These are literature values, as cited in patent publication US20250170094A1 (priority 2023, published 2025).

Assay in data set [1]: not given
The source holds these as a separate data set.

Like-named read-outs stand apart in the source and are kept apart here. Some results are limits rather than exact numbers.

Regarding `CCC(CC)[C@H](NC(C)=O)[C@@H]1[C@H](O)[C@@H](C(=O)O)C[C@H]1NC(=N)N` [peramivir, (1S,2S,3R,4R)-3-[(1S)-1-(acetylamino)-2-ethylbutyl]-4-guanidino-2-hydroxycyclopentanecarboxylic acid], the solubility entry runs as follows: (pH 1.0) “about 59 mg/ml”; (pH≥5) not above 20 mg/mL. Further, in data set [1], the “oil-water partition coefficient LogP[n-octanol/water]” value is on record as −1.16.

Broadly, the solubility is the dissolved amount per volume that the medium holds.
